Results reported in ChEMBL document CHEMBL1145011 (J Med Chem, 2003).
One block for each compound: values may come before it.

Tests used:
in vivo [1] = conditions: rat, po, 10 uM/kg
in vivo [2] = conditions: rat
in vivo [3] = conditions: rat, po, 10 umol/kg
in vivo [4] = conditions: rat, iv, 10 umol/kg
in vivo [5] = conditions: rat, po, 10 umol/kg; remark: listed apart in the source
in vivo [6] = conditions: rat, plasma, iv, 10 umol/kg
[7] = Half life in monkey at intravenous dose of 25 umol/kg; format: ADME, organism-based; conditions: simiiformes, in vivo
[8] = Half life in monkey at oral dose of 25 umol/kg; format: ADME, organism-based; conditions: simiiformes, in vivo
[9] = Cmax value at oral dose of 25 umol/kg in monkey; format: ADME, organism-based; set-up: dose 25 umol/kg, route oral; conditions: simiiformes, in vivo
[10] = Area under curve at intravenous dose of 25 umol/kg in monkey; format: ADME; conditions: simiiformes, in vivo
[11] = Area under curve at oral dose of 25 umol/kg in monkey; format: ADME; conditions: simiiformes, in vivo
[12] = Tested for volume distribution at intravenous dose of 25 umol/kg in monkey; format: ADME, organism-based; conditions: simiiformes, in vivo, read-out: Vss
[13] = T max value at oral dose of 25 umol/kg in monkey; format: ADME, organism-based; conditions: simiiformes, in vivo
[14] = Tested for plasma clearance at intravenous dose of 25 umol/kg in monkey; format: ADME, organism-based
[15] = Percent oral bioavailability at dose of 25 umol/kg in monkey; format: ADME, organism-based; conditions: primates, in vivo
in vivo [16] = conditions: rat, iv, 10 umol/kg; remark: listed apart in the source
in vivo [17] = conditions: rat, plasma, iv, 10 umol/kg; remark: listed apart in the source
in vitro = conditions: human, Caco-2

SMILES: Cc1onc(NS(=O)(=O)c2ccccc2-c2ccc(-c3ncco3)cc2CN2CCC(C)(C)C2=O)c1C
bioavailability (in vivo [1]): 78%
half-life (in vivo [2]): 4.7 h
Cmax (in vivo [3]): 7.7 µM
Vd (in vivo [4]): 2.3 L/kg
Tmax (in vivo [5]): 0.6 h
clearance (in vivo [6]): 9.3 mL/min/kg

half-life [7]: 14 h
half-life [8]: 17 h
Cmax [9]: 16.1 µM
AUC [10]: 161 µM·h
AUC [11]: 41.5 µM·h
Vd [12]: 0.25 L/kg
Tmax [13]: 1.2 h
clearance [14]: 2.7 mL/min/kg
bioavailability [15]: 26%
bioavailability (in vivo [1]): 100%
half-life (in vivo [2]): 3.4 h
Cmax (in vivo [3]): 28 µM
Vd (in vivo [16]): 1.1 L/kg
Tmax (in vivo [5]): 0.4 h
clearance (in vivo [17]): 5.4 mL/min/kg
SMILES: Cc1onc(NS(=O)(=O)c2ccccc2-c2ccc(-c3ncco3)cc2N(C)C(=O)CC(C)(C)C)c1C

SMILES: Cc1noc(NS(=O)(=O)c2ccccc2-c2ccc(-c3ncco3)cc2COCC(C)C)c1C
Papp (in vitro): < 3 ×10⁻⁶ cm/s

Papp (in vitro): 8.9 ×10⁻⁶ cm/s
SMILES: Cc1noc(NS(=O)(=O)c2ccccc2-c2ccc(-c3ncco3)cc2/C=C\c2ccccc2)c1C

SMILES: Cc1noc(NS(=O)(=O)c2ccccc2-c2ccc(-c3ncco3)cc2Cc2ncco2)c1C
Papp (in vitro): 14.8 ×10⁻⁶ cm/s
